Like-named read-outs stand apart in the source and are kept apart here.
Legend:
Format in all cases: cell-based
[1] = test system: RPMI-8226; assay: NCI 60 five-dose screen RPMI-8226; details: Homo sapiens; for CC50: read-out: LC50 (the source's name)
[2] = test system: MDA-MB-435; assay: NCI 60 five-dose screen MDA-MB-435; details: Homo sapiens; for CC50: read-out: LC50 (the source's name) (converted)
[3] = test system: NCI-H322M; assay: NCI 60 five-dose screen NCI-H322M; details: Homo sapiens; for CC50: read-out: LC50 (the source's name) (converted)
[4] = test system: LOX IMVI; assay: NCI 60 five-dose screen LOX IMVI; details: Homo sapiens; for CC50: read-out: LC50 (the source's name) (converted)
[5] = test system: UO-31; assay: NCI 60 five-dose screen UO-31; details: Homo sapiens; for CC50: read-out: LC50 (the source's name) (converted)
[6] = test system: MOLT-4; assay: NCI 60 five-dose screen MOLT-4; details: Homo sapiens; for CC50: read-out: LC50 (the source's name)
[7] = test system: SF-295; assay: NCI 60 five-dose screen SF-295; details: Homo sapiens; for CC50: read-out: LC50 (the source's name) (converted)
[8] = test system: OVCAR-5; assay: NCI 60 five-dose screen OVCAR-5; details: Homo sapiens; for CC50: read-out: LC50 (the source's name) (converted)
[9] = test system: MALME-3M; assay: NCI 60 five-dose screen MALME-3M; details: Homo sapiens; for CC50: read-out: LC50 (the source's name) (converted)
[10] = test system: KM12; assay: NCI 60 five-dose screen KM12; details: Homo sapiens; for CC50: read-out: LC50 (the source's name) (converted)
[11] = test system: TK-10; assay: NCI 60 five-dose screen TK-10; details: Homo sapiens; for CC50: read-out: LC50 (the source's name) (converted)
[12] = test system: DU-145; assay: NCI 60 five-dose screen DU-145; details: Homo sapiens; for CC50: read-out: LC50 (the source's name) (converted)
[13] = test system: HL-60(TB); assay: NCI 60 five-dose screen HL-60(TB); details: Homo sapiens; for CC50: read-out: LC50 (the source's name) (converted)
[14] = test system: PC-3; assay: NCI 60 five-dose screen PC-3; details: Homo sapiens; for CC50: read-out: LC50 (the source's name) (converted)

FC(F)(F)c1cc2c(Cl)ncnc2n1CCN1CCCCC1 [NUCC-0226679]
GI50 ([1]; five-dose): 31.6 µM
IC50 ([1]; five-dose): 45.7 µM
IC (TGI) ([1]; five-dose): 100 µM
CC50 ([1]; five-dose): ≥ 100 µM
GI50 ([2]; five-dose): 13.2 µM
IC50 ([2]; five-dose): 21.9 µM
IC (TGI) ([2]; five-dose): 30.2 µM
CC50 ([2]; five-dose): 67.6 µM
GI50 ([3]; five-dose): 15.5 µM
IC50 ([3]; five-dose): 36.3 µM
IC (TGI) ([3]; five-dose): 43.7 µM
CC50 ([3]; five-dose): ≥ 100 µM
GI50 ([4]; five-dose): 1.7 µM
IC50 ([4]; five-dose): 2.95 µM
IC (TGI) ([4]; five-dose): 3.09 µM
CC50 ([4]; five-dose): 5.75 µM
GI50 ([5]; five-dose): 1.74 µM
IC50 ([5]; five-dose): 3.31 µM
IC (TGI) ([5]; five-dose): 3.55 µM
CC50 ([5]; five-dose): 7.41 µM
GI50 ([6]; five-dose): 10.5 µM
IC50 ([6]; five-dose): 25.1 µM
IC (TGI) ([6]; five-dose): 55 µM
CC50 ([6]; five-dose): ≥ 100 µM
GI50 ([7]; five-dose): 22.4 µM
IC50 ([7]; five-dose): 40.7 µM
IC (TGI) ([7]; five-dose): 87.1 µM
CC50 ([7]; five-dose): ≥ 100 µM
GI50 ([8]; five-dose): 100 µM
IC50 ([8]; five-dose): 100 µM
IC (TGI) ([8]; five-dose): 100 µM
CC50 ([8]; five-dose): ≥ 100 µM
GI50 ([9]; MALME-3M, five-dose): 19.1 µM
IC50 ([9]; MALME-3M, five-dose): 63.1 µM
IC (TGI) ([9]; MALME-3M, five-dose): 55 µM
CC50 ([9]; MALME-3M, five-dose): ≥ 100 µM
GI50 ([10]; five-dose): 29.5 µM
IC50 ([10]; five-dose): 41.7 µM
IC (TGI) ([10]; five-dose): 100 µM
CC50 ([10]; five-dose): ≥ 100 µM
GI50 ([11]; five-dose): 100 µM
IC50 ([11]; five-dose): 100 µM
IC (TGI) ([11]; five-dose): 100 µM
CC50 ([11]; five-dose): ≥ 100 µM
GI50 ([12]; five-dose): 30.2 µM
IC50 ([12]; five-dose): 50.1 µM
IC (TGI) ([12]; five-dose): 100 µM
CC50 ([12]; five-dose): ≥ 100 µM
GI50 ([13]; five-dose): 2.09 µM
IC50 ([13]; five-dose): 4.37 µM
IC (TGI) ([13]; five-dose): 7.41 µM
CC50 ([13]; five-dose): ≥ 100 µM
GI50 ([14]; five-dose): 15.1 µM
IC50 ([14]; five-dose): 25.7 µM
IC (TGI) ([14]; five-dose): 47.9 µM
CC50 ([14]; five-dose): ≥ 100 µM

O=c1ccc(Cn2c(C(F)(F)F)cc3c(Cl)ncnc32)c[nH]1 [NUCC-0226698]
GI50 [1]: 22.9 µM
IC50 [1]: 38 µM
IC (TGI) [1]: 100 µM
CC50 [1]: ≥ 100 µM
GI50 [2]: 4.68 µM
IC50 [2]: 7.24 µM
IC (TGI) [2]: 20.4 µM
CC50 [2]: 74.1 µM
GI50 [3]: 14.1 µM
IC50 [3]: 32.4 µM
IC (TGI) [3]: 39.8 µM
CC50 [3]: ≥ 100 µM
GI50 [4]: 1.66 µM
IC50 [4]: 2.88 µM
IC (TGI) [4]: 3.09 µM
CC50 [4]: 5.89 µM
GI50 [5]: 5.01 µM
IC50 [5]: 14.1 µM
IC (TGI) [5]: 19.1 µM
CC50 [5]: 47.9 µM
GI50 [6]: 3.24 µM
IC50 [6]: 4.79 µM
IC (TGI) [6]: 17 µM
CC50 [6]: ≥ 100 µM
GI50 [7]: 28.2 µM
IC50 [7]: 50.1 µM
IC (TGI) [7]: 100 µM
CC50 [7]: ≥ 100 µM
GI50 [8]: 61.7 µM
IC50 [8]: 100 µM
IC (TGI) [8]: 100 µM
CC50 [8]: ≥ 100 µM
GI50 ([9]; Malme-3M): 15.8 µM
IC50 ([9]; Malme-3M): 36.3 µM
IC (TGI) ([9]; Malme-3M): 34.7 µM
CC50 ([9]; Malme-3M): 77.6 µM
GI50 [10]: 17.8 µM
IC50 [10]: 30.2 µM
IC (TGI) [10]: 39.8 µM
CC50 [10]: 91.2 µM
GI50 [11]: ≥ 100 µM
IC50 [11]: 100 µM
IC (TGI) [11]: 100 µM
CC50 [11]: ≥ 100 µM
GI50 [12]: 38.9 µM
IC50 [12]: 61.7 µM
IC (TGI) [12]: 100 µM
CC50 [12]: ≥ 100 µM
GI50 [13]: 2.09 µM
IC50 [13]: 3.63 µM
IC (TGI) [13]: 6.03 µM
CC50 [13]: ≥ 100 µM
GI50 [14]: 17 µM
IC50 [14]: 28.2 µM
IC (TGI) [14]: 56.2 µM
CC50 [14]: ≥ 100 µM

COc1cc(Cn2c(C(F)(F)F)cc3c(Cl)ncnc32)ccn1 [NUCC-0226694]
GI50 [1]: 15.5 µM
IC50 [1]: 26.3 µM
IC (TGI) [1]: 79.4 µM
CC50 [1]: ≥ 100 µM
GI50 [2]: 3.24 µM
IC50 [2]: 4.79 µM
IC (TGI) [2]: 14.5 µM
CC50 [2]: 50.1 µM
GI50 [3]: 1.7 µM
IC50 [3]: 3.16 µM
IC (TGI) [3]: 3.31 µM
CC50 [3]: 6.31 µM
GI50 [4]: 1.66 µM
IC50 [4]: 2.88 µM
IC (TGI) [4]: 3.16 µM
CC50 [4]: 6.03 µM
GI50 [5]: 8.71 µM
IC50 [5]: 18.2 µM
IC (TGI) [5]: 24 µM
CC50 [5]: 61.7 µM
GI50 [6]: 3.31 µM
IC50 [6]: 4.57 µM
IC (TGI) [6]: 100 µM
CC50 [6]: ≥ 100 µM
GI50 [7]: 16.6 µM
IC50 [7]: 30.2 µM
IC (TGI) [7]: 32.4 µM
CC50 [7]: 63.1 µM
GI50 [8]: 15.8 µM
IC50 [8]: 29.5 µM
IC (TGI) [8]: 32.4 µM
CC50 [8]: 66.1 µM
GI50 ([9]; Malme-3M): 12.6 µM
IC50 ([9]; Malme-3M): 25.7 µM
IC (TGI) ([9]; Malme-3M): 25.7 µM
CC50 ([9]; Malme-3M): 51.3 µM
GI50 [10]: 13.5 µM
IC50 [10]: 22.9 µM
IC (TGI) [10]: 30.2 µM
CC50 [10]: 69.2 µM
GI50 [11]: 19.1 µM
IC50 [11]: 45.7 µM
IC (TGI) [11]: 46.8 µM
CC50 [11]: ≥ 100 µM
GI50 [12]: 1.78 µM
IC50 [12]: 3.09 µM
IC (TGI) [12]: 3.24 µM
CC50 [12]: 5.89 µM
GI50 [13]: 2.14 µM
IC50 [13]: 3.39 µM
IC (TGI) [13]: 7.24 µM
CC50 [13]: ≥ 100 µM
GI50 [14]: 5.5 µM
IC50 [14]: 9.55 µM
IC (TGI) [14]: 20.9 µM
CC50 [14]: 58.9 µM

Reference: US20240109903A1, “SUBSTITUTED HETEROCYCLES FOR TREATING CANCER” (Northwestern University, priority 2022, published 2024)
